Laboratory results taken from PMC11281031, “A Machine-Learning-Driven Pathophysiology-Based New Approach Method for the Dose-Dependent Assessment of Hazardous Chemical Mixtures and Experimental Validations” (Toxics, 2024).

Legend:
Type in all cases: in vivo
[1] = system: zebrafish embryos; assay: Dose-response zebrafish live assay, single chemicals (developmental toxicity); settings: for concentration at which embryos were relatively normal / symptoms absent / lowest dose causing significant developmental abnormalities (toxic at): 2 dpf; for lethal concentration: 100% lethality / lethal by
Procedure: Dose-dependent toxicities in zebrafish embryos were assessed by the lowest dose that caused significant developmental abnormalities 2 days post-fertilization (2 dpf) in a dose-response live assay. […] Starting with Pyraclostrobin, it was identified as toxic at 30 nM. It induced developmental delays in the embryos without visible deformities. […] It appeared relatively normal at 5 µM. This twitching phenotype indicates specific neuronal toxicity. […] These symptoms were absent at lower concentrations (30 µM), highlighting a dosage-sensitive relationship.
(§1) First, the toxicity of single chemicals in zebrafish embryos is determined. Using the toxicity data of single chemicals as a baseline, we screened mixtures for altered activity and characterized the optimal concentration ratios of components. For chemical treatments, 1000× working stocks are prepared in DMSO. Dechorionated zebrafish embryos, […], are placed in 0.5 mL of fish water (0.3 g/L sea salt) in 24-well plates. The 1000× stock solution of chemicals is diluted to 2× in fish water with 2% DMSO added. Then, 0.5 mL of the 2× diluted chemical solution is added to the 0.5 mL of fish water containing the embryos to achieve a final concentration of 1× compound in 1% DMSO.
Figure 9 Dose-dependent toxicity assessment of AI-CPTM predicted chemicals (Table 1, Table 2, Table 3 and Table 4) as the lowest dose leading to, what is defined here, as significant developmental abnormalities at 2 days post-fertilization (2 dpf) in a dose-response zebrafish live assay.
We assessed individual chemicals for developmental toxicity, indicating any disruption in embryonic development from 1 to 4 days post-fertilization (dpf). Embryos are exposed to chemicals in their bath water from 1 dpf to 4 dpf, without changing the water during exposure. Initially, chemicals are screened by testing them at a series of concentrations increasing by half-log steps. […] Each embryo is assigned a score reflecting the severity of observed phenotypes, with the average score representing the group. The EC50 for developmental toxicity is defined as a score of five on this teratogenicity scale (Figure 10 and Supplementary Material S2). Once the effective range is identified, the EC50 is determined by testing a linear series of concentrations spanning from non-toxic to toxic levels. For chemicals not toxic at 10 µM, tests are extended up to 200 µM, with those showing no effects at this level considered non-toxic.

[2] = system: zebrafish embryos; assay: Zebrafish-embryo mixture toxicity, mixed chemical phenotype score and interaction; settings: with DMSO, max 20 = normal
Procedure: as §1
Figure 10 Mixed chemical phenotypes and how they are scored. The mixed chemical phenotype score is the sum of the scores for the five individual fish in a well. Two wells were treated per chemical combination, and the scores are averaged for the wells. Scoring was as follows: dead = 0; severely deformed = 1; deformed = 2; slightly deformed = 3; and normal phenotypes = 4.
We tested the top 300 chemical mixtures, as prioritized by AI-CPTM, which were randomly selected and readily purchasable, on zebrafish embryos. […] We then compared the toxicity predictions made by the machine-learning model with the results obtained from the zebrafish assays.
The EC50, indicating the median effective concentration for developmental toxicity, is determined using morphological criteria. Fish are identified by date and well number (Figure 10). In each well containing five fish, the mixed compound phenotype score is the sum of the scores for the individual fish. Two wells are treated per combination, and the scores are averaged across these wells (Supplementary Material S2). Scoring follows this scale: dead = 0; severely deformed = 1; deformed = 2; slightly deformed = 3; normal phenotypes = 4. […] The EC50 and lowest observable effect concentration (LOEC) for binary mixtures are determined by testing a linear concentration series of the first chemical against five concentrations of the second chemical, including a vehicle control.

[3] = system: zebrafish embryos; assay: PFOS/PFOA zebrafish-embryo lethality (LD50), sub-lethal effects (EC50) and mixture survival assay; settings: for LD50: embryos exposed at 2 dpf for 24 h at 33 °C, average of three experiments; for EC50: sub-lethal adverse effects, exposed at 2 dpf for 24 h at 33 °C
Description: The methodology for assessing the toxicity in zebrafish is detailed in our earlier publication. The data presented in Table 3 and Table 4 and Figure 12 show the acute and sub-lethal toxicity of PFOS and PFOA individually and in combination with zebrafish embryos. This initial study offered a comparative insight into their toxic profiles in terms of lethal (LD50) and effective (EC50) concentrations, which are important for measuring their toxic effects. […] These concentrations reflect the exposure of zebrafish embryos to PFOS and PFOA at 2 days post-fertilization (dpf) for one day at a temperature of 33 °C. […] These effects include severe developmental abnormalities, such as bent body axis, edema, cloudy tissue formation, and developmental delays, signaling significant toxicity even at lower concentrations.
We explored further the combined effects of PFOS and PFOA, as shown in Table 4 and Figure 12, to examine how varying concentrations of PFOS affect the LD50 of PFOA in a mixture. The LD50 is the dose at which 50% of the embryos are dead. […] A five dose-response curve for PFOA was tested against three fixed concentrations, 68 µM, 38 µM, and 22 µM of PFOS at 2 dpf for one day at 33 °C. […] Nonetheless, as each experiment is internally controlled, relative toxicity and mixture interactions are accurately detected.
PFOS requires a lower concentration to be lethal and affects development at much lower concentrations compared to PFOA. […] Five concentrations of PFOA were tested to generate the dose-response curves. […] Overall, these experiments support predictions of AI-CPTM toxicity and chemical interaction effects.

[4] = single chemical, tested up to 200 µM

`CC(C)(C)[C@@H](O)[C@@H](Cc1ccc(Cl)cc1)n1cncn1` (racemic) [Paclobutrazol] was tested, and the “concentration at which embryos were relatively normal / symptoms absent” value ([1]; single chemical) was 30000 nM, the “lowest dose causing significant developmental abnormalities (toxic at)” value [1, 4] was 50 µM and the “phenotype score of single chemical (Average / Compound #1 / Compound #2 phenotype score)” value ([2]; 50 µM) was 17.5. The “phenotype score of single chemical (Average / Compound #1 / Compound #2 phenotype score)” value ([2]; 100 µM) was 20.
For `Oc1c(Br)cc(Br)cc1Br` [2,4,6-Tribromophenol], the “lowest dose causing significant developmental abnormalities (toxic at)” value [1, 4] was 2 µM, the lethal concentration ([1]; single chemical) was 10 µM and the “phenotype score of single chemical (Average / Compound #1 / Compound #2 phenotype score)” value ([2]; 2 µM) was 14. For the same compound, the “phenotype score of single chemical (Average phenotype score)” value ([2]; 4 µM) was 0.
In the case of `CC1(C)C(C=C(Cl)Cl)C1C(=O)OC(C#N)c1ccc(F)c(Oc2ccccc2)c1` (stereo not drawn) [Baythroid], the “effect on embryo development (Figure 11)” value ([1]; at 200 µm) is reported as “pronounced deformities” and the “lowest dose causing significant developmental abnormalities (toxic at)” value [1, 4] is reported as 20 µM.
`CCCCC(CC)COC(=O)c1ccccc1C(=O)OCC(CC)CCCC` (stereo not drawn) [Bis-(2-Ethylhexyl) Phthalate] was tested, and the “effect on embryo development (Figure 11)” value ([1]; at 200 µm) was “pronounced deformities” and the “lowest dose causing significant developmental abnormalities (toxic at)” value [1, 4] was over 200 µM.
In the case of `CCCCOCN(C(=O)CCl)c1c(CC)cccc1CC` [Butachlor], the “effect on embryo development (Figure 11)” value ([1]; at 200 µm) is reported as “pronounced deformities”, the “concentration at which embryos were relatively normal / symptoms absent” value ([1]; single chemical) is reported as 100000 nM and the “lowest dose causing significant developmental abnormalities (toxic at)” value [1, 4] is reported as 200 µM. The “phenotype score of single chemical (Average / Compound #1 / Compound #2 phenotype score)” value ([2]; 100 µM) was 16 and the “phenotype score of single chemical (Average phenotype score)” value ([2]; 200 µM) was 0.
With `O=C(OC1CCCCC1)c1ccccc1C(=O)OC1CCCCC1` [Dicyclohexyl Phthalate, Dicyclohexyl Phthalate (DCHP)] the “effect on embryo development (Figure 11)” value ([1]; at 200 µm) was “marked malformations and growth retardation”, the “lowest dose causing significant developmental abnormalities (toxic at)” value [1, 4] was 200 µM and the “phenotype score of single chemical (Average / Compound #1 / Compound #2 phenotype score)” value ([2]; 100 µM) was 20. The “phenotype score of single chemical (Average phenotype score)” value ([2]; 200 µM) was 20.
In the case of `CC1(C)C(C(=O)OC(C#N)c2cccc(Oc3ccccc3)c2)C1(C)C` (stereo not drawn) [Fenpropathrin], the “concentration at which embryos were relatively normal / symptoms absent” value ([1]; single chemical) is reported as 5000 nM, the “lowest dose causing significant developmental abnormalities (toxic at)” value [1, 4] is reported as 10 µM and the “phenotype score of single chemical (Average / Compound #1 / Compound #2 phenotype score)” value ([2]; 5 µM) is reported as 10. For the same compound, the “phenotype score of single chemical (Average phenotype score)” value ([2]; 10 µM) was 0.
With `COCc1cnc(C2=NC(C)(C(C)C)C(=O)N2)c(C(=O)O)c1` (stereo not drawn) [Imazamox] the “effect on embryo development (Figure 11)” value ([1]; at 200 µm) was “marked malformations and growth retardation” and the “lowest dose causing significant developmental abnormalities (toxic at)” value [1, 4] was over 200 µM.
`CC(CNCc1ccccc1O)NCc1ccccc1O` (stereo not drawn) [Motor fuel oil, Alpha, alpha’-(1-methylethylenediimino)di-ortho-cresol] was tested, and the “concentration at which embryos were relatively normal / symptoms absent” value ([1]; single chemical) was 1000 nM, the “lowest dose causing significant developmental abnormalities (toxic at)” value [1, 4] was 5 µM and the lethal concentration ([1]; single chemical) was 10 µM. For the same compound, the “phenotype score of single chemical (Average / Compound #1 / Compound #2 phenotype score)” value ([2]; 2.5 µM) was 16 and the “phenotype score of single chemical (Average / Compound #1 / Compound #2 phenotype score)” value ([2]; 5 µM) was 6.
`O=C(O)C(F)(F)C(F)(F)C(F)(F)C(F)(F)C(F)(F)C(F)(F)C(F)(F)F` [PFOA, Perfluorooctanoic acid (PFOA)] showed an LD50 [3] of 187.5 µM and an EC50 [3] of 29.5 µM.
Compound `O=S(=O)(O)C(F)(F)C(F)(F)C(F)(F)C(F)(F)C(F)(F)C(F)(F)C(F)(F)C(F)(F)F` [PFOS, Perfluorooctane sulfonic acid (PFOS)] has a survival ([3]; 68 μM PFOS, 0 μM PFOA) of 100%, an LD50 [3] of 53 µM and an EC50 [3] of 11 µM.
In the case of `COc1cnc(OC)n2nc(NS(=O)(=O)c3c(OCC(F)F)cccc3C(F)(F)F)nc12` [Penoxsulam], the “effect on embryo development (Figure 11)” value ([1]; at 200 µm) is reported as “moderate deformities” and the “lowest dose causing significant developmental abnormalities (toxic at)” value [1, 4] is reported as over 200 µM.
In the case of `COC(=O)N(OC)c1ccccc1COc1ccn(-c2ccc(Cl)cc2)n1` [Pyraclostrobin], the “effect on embryo development (Figure 11)” value ([1]; at 30 nm) is reported as “minimal effects”, the “effect on embryo development (Figure 11)” value ([1]; at 200 µm) is reported as “significant embryonic damage” and the “concentration resulting in embryo lysis” value ([1]; single chemical) is reported as 100 nM. For the same compound, the “lowest dose causing significant developmental abnormalities (toxic at)” value ([1]; single chemical) was 0.03 µM, the “phenotype score of single chemical (Average / Compound #1 / Compound #2 phenotype score)” value ([2]; 0.01 µM) was 20 and the “phenotype score of single chemical (Average phenotype score)” value ([2]; 0.02 µM) was 20.
With `CC(C)(C)c1ccc(CSc2cnn(C(C)(C)C)c(=O)c2Cl)cc1` [Pyridaben] the “effect on embryo development (Figure 11)” value ([1]; at 50 nm) was “noticeable developmental delays and morphological abnormalities”, the “concentration causing developmental stalling at the 8-somite stage” value ([1]; single chemical) was 100 nM and the “lowest dose causing significant developmental abnormalities (toxic at)” value ([1]; single chemical) was 0.05 µM. For the same compound, the “phenotype score of single chemical (Average / Compound #1 / Compound #2 phenotype score)” value ([2]; 0.05 µM) was 20 and the “phenotype score of single chemical (Average phenotype score)” value ([2]; 0.1 µM) was 18.5.
With `CC/C(=N\OC/C=C/Cl)C1=C(O)CC(C2CCOCC2)CC1=O` (stereo not drawn) [Tepraloxydim] the “effect on embryo development (Figure 11)” value ([1]; at 200 µm) was “moderate deformities” and the “lowest dose causing significant developmental abnormalities (toxic at)” value [1, 4] was over 200 µM.
With `CC(C)=CC1C(C(=O)OCN2C(=O)C3=C(CCCC3)C2=O)C1(C)C` (stereo not drawn) [Tetramethrin] the “effect on embryo development (Figure 11)” value ([1]; at 200 µm) was “pronounced deformities”, the “lowest dose causing significant developmental abnormalities (toxic at)” value [1, 4] was 5 µM and the “phenotype score of single chemical (Average / Compound #1 / Compound #2 phenotype score)” value ([2]; 5 µM) was 20. The “phenotype score of single chemical (Average phenotype score)” value ([2]; 10 µM) was 15.
With `COc1nc(C)nc(NC(=O)NS(=O)(=O)c2ccccc2OCCCl)n1` [Triasulfuron] the “lowest dose causing significant developmental abnormalities (toxic at)” value [1, 4] was over 200 µM.
